In patent US20230014782A1, “NEW SOLID STATE FORM OF LURBINECTEDIN” (PHARMA MAR, S.A., priority 2019, published 2023):

Assays:
[1] = system: solid and non-solid tumour cell lines; conditions: cited from earlier work
[2] = Mixing of the concentrated lurbinectedin solution with buffer solution, precipitation; type: physicochemical; conditions: high concentration lurbinectedin solution (8.3 mg/mL in 0.1M lactic acid)
Method: In embodiments, a multi-step compounding strategy is used to prepare lurbinectedin. Step 1 is the pre-dissolution step described above, for example: pre-dissolving partly crystalline lurbinectedin in lactic acid 0.31M at 25 mg/mL and diluting 3× with WFI to obtain the concentrated solution at 8.3 mg/mL in 0.1M lactic acid. To avoid precipitation of lurbinectedin, the remaining excipients should have acid pH when added to the compounding formulation. […] As such, in Step 2, an organic buffer solution containing the bulking agent (eg disaccharide) may be prepared at suitable pH. By way of example, this may comprise the preparation of a 0.04 M sodium lactate buffer at pH of around 4.2 containing sucrose. In step 3, the solutions from step 1 and step 2 are combined to form the final bulk solution. The final bulk solution may be adjusted with WFI to achieve the final target weight. By way of example, in step 3, the 8.3 mg/mL lurbinectedin concentrated solution in 0.1M lactic acid with pH≈3 is diluted with 0.04M sodium lactate buffer pH≈4.2 containing sucrose. The final bulk solution composition after adjustment of WFI to final weight may be, by way of example, 0.5 mg/mL lurbinectedin in 0.03M sodium lactate buffer pH=4+10% (w/v) sucrose. The present invention therefore identifies a compounding strategy to formulate partially crystalline lurbinectedin.

[3] = system: xenografted human tumor cell lines; conditions: xenografts in mice, such as breast, kidney and ovarian cancer; cited from earlier work
[4] = Maximum solubility of lurbinectedin in different molarities of lactic acid; type: physicochemical
Method: As such, in embodiments, a concentrated lurbinectedin solution is prepared in organic acid before addition of other excipients. In preferred embodiments, the organic acid has a pH less than 4, preferably less than 3.5, more preferably less than 3, or around 3. The maximum solubility of lurbinectedin was investigated in different molarities of the organic acid lactic acid. […] In a preferred embodiment, lurbinectedin is dissolved in an organic acid with a molarity of around 0.1 M to 0.5 M, preferably around 0.2 M to 0.4 M, more preferably around 0.3 M organic acid. An exemplary molarity is 0.31 M organic acid.

[5] = Direct dissolution of lurbinectedin in sodium lactate buffer (dissolution kinetics); type: physicochemical
Method: In embodiments, the lurbinectedin to be dissolved is at least partially crystalline. The lurbinectedin to be dissolved may be in the solid state form(s) described herein. […] By way of example, while the direct dissolution of amorphous lurbinectedin at 0.5 mg/mL in 0.03 M sodium lactate buffer pH 4 was completed in approximately 30 minutes, partly crystalline lurbinectedin reached only 60-70% of the target concentration in 2 hours, meaning that it had much slower dissolution kinetics.

[6] = Electrostatic charge measurements with a Faraday cage; type: physicochemical; conditions: for Dispersion of charge density (Q/m) / Average charge density (Q/m): Faraday cage, dry nitrogen, ranges with 95% confidence; for Average charge density (Q/m): slope of lineal regression of charge vs mass
From the text: The electrostatic charges of two batches of form A of lurbinectedin (Batches P04 and R05) and of form B of lurbinectedin (Batch 1924129-LT and 1924128-LT) have been measured using a Faraday cage (See FIG. 8) constructed of stainless steel with concentric spheres with ratios 10, 15 and 20 cm.
This technique consists in placing the sample to be measured (q) in the interior of the inner sphere (a) and measuring the difference of potential induced between sphere (a) and another conductor of reference, sphere (b). The external sphere (c) is grounded in order to shield the system. The measurements of the difference of potential were carried out with a precision electrometer (Keithley 617, resolution 10fC.
Measurements were carried out under controlled atmosphere of dry nitrogen in order to avoid the effect of ambient humidity on the electrostatic charge of the samples.
Samples were introduced in glass capsules using non-conductor instrumental to avoid loses of electrostatic charge.
The capsules loaded with the samples were introduced in the Faraday cage through a grounded conductor tube to avoid parasitic static charges in the glass capsule. The entry and removal of the capsules was done with a computer-controlled servo engine, in order to ensure a constant rate of introduction and removal of the capsules in each measurement to minimize the creation of static charges due to friction of the insulator elements.
Several measurements with different amounts of material were carried out for each batch of each form of lurbinectedin. Before loading the capsules, they were washed and their remaining static charge was measured in order to correct the levels. Each sample was introduced and removed five times and, after each introduction, several consecutive measurements were taken in order to average any possible drift effect. FIGS. 9a and 9b summarized the results of such measurement for each pair of batches of forms A and B of lurbinectedin.
The measured charge Q increases with the amount of analyzed material. Both forms of lurbinectedin have a positive electrostatic charge. […] The data was fitted by lineal regression (dashed lines in FIGS. 9a and 9b) to obtain the charge density (Q/m) as the slope of the line. […] All ranges are given with a 95% confidence.

[7] = TG-FTIR thermal degradation; type: physicochemical; conditions: N2 atmosphere, 25-250° C., 10° C./min
Method: TG-FTIR experiments were conducted with a Thermo-Microbalance TG-209 (Netzsch) equipped with a FT-IR Spectrometer Vector 22 (Bruker) using Al crucible (open or with microhole) under N2 atmosphere with a heating range between 25 and 250° C. and a heating rate of 10° C./min.
TG-FTIR indicates degradation above 150° C. for form B of lurbinectedin. A release of 2.6% of water was detected.

DSC thermal degradation = type: physicochemical; conditions: closed Au crucibles, -50 to 250° C.
Method: DSC experiments were carried out with a Perkin Elmer DSC 7 using closed Au crucibles with a heating range between −50 to 250° C. and a heating rate of 10 or 20° C./min.
Estimation of the amorphous content by DSC was not possible. […] A glass transition temperature or melting point was not detected.

[8] = Dynamic vapor sorption (DVS); type: physicochemical
Method: DVS experiments were carried out with a Projekt Messtechnik SPS 11-100n multi-sample water vapor sorption analyzer. The sample was allowed to equilibrate at 50% r.h. before starting a pre-defined humidity program. The program was: • 2 h at 50% r.h. • 50 to 0% r.h. […]
DVS indicates a continuous water uptake and release with no steps and almost no hysteresis. […] Upon lowering the relative humidity again, the water content decreased and nearly returned to the original mass, see FIG. 5.

lurbinectedin
In vitro activity [1]: highly potent
pH of buffer solution that can be mixed without precipitation of lurbinectedin [2]: ≤ 5.6
In vivo activity [3]: significant
Maximum solubility ([4]; 0.05 M lactic acid): 7.2 mg/mL
Maximum solubility ([4]; 0.5 M lactic acid): 90.4 mg/mL

lurbinectedin [form A of lurbinectedin]
Time to complete direct dissolution ([5]; 0.5 mg/mL in 0.03 M sodium lactate buffer pH 4): approximately 30 minutes
Total static charge relative to form B [6]: considerably higher
Dispersion of charge density (Q/m) ([6]; listed as P04): 7.6 ± 2.8 nC/g
Dispersion of charge density (Q/m) ([6]; listed as R05): 15.23 ± 5.64 nC/g
Average charge density (Q/m) ([6]; listed as P04): 43.1 ± 3.86 nC/g
Average charge density (Q/m) ([6]; listed as R05): 64.02 ± 7.98 nC/g

lurbinectedin [form B of lurbinectedin]
Fraction of target concentration reached ([5]; target 0.5 mg/mL in 0.03 M sodium lactate buffer pH 4, in 2 hours): 60-70%
Degradation temperature (TG-FTIR) [7]: above 150 °C
Temperature at which degradation begins (DSC) (DSC thermal degradation): above 130 °C
Dispersion of charge density (Q/m) ([6]; listed as 1924128-LT): 1.01 ± 0.3 nC/g
Dispersion of charge density (Q/m) ([6]; listed as 1924129-LT): 3.4 ± 1.4 nC/g
Average charge density (Q/m) ([6]; listed as 1924128-LT): 4.3 ± 0.4 nC/g
Average charge density (Q/m) ([6]; listed as 1924129-LT): 4.96 ± 2.0 nC/g
Average charge density relative to form A ([6]; two different batches of each form): one order of magnitude lower
Deliquescence (DVS) [8]: not deliquescent
Hygroscopicity (DVS) [8]: hygroscopic
Mass change Δm (water uptake, DVS) ([8]; 50 to 96% r.h.): ≈ 4%
